The values that follow come from paper PMC3766871, “Separacenes A–D, Novel Polyene Polyols from the Marine Actinomycete, Streptomyces sp” (Marine Drugs, 2013).

The target in assay [1] is T1, isocitrate lyase (ICL) (Candida albicans, UniProt Q9P8Q7).
T1 construct: gene ICL1
Put plainly: positive control in enzyme assay with purified ICL, glyoxylate phenylhydrazone formation at […] nm. In kind it is biochemical.

Assay [2] concerns the target T1, isocitrate lyase (ICL). As to the kind of experiment: enzyme assay with purified ICL, glyoxylate phenylhydrazone formation at […] nm. In kind it is biochemical.

T1 sequence (Q9P8Q7 whole entry): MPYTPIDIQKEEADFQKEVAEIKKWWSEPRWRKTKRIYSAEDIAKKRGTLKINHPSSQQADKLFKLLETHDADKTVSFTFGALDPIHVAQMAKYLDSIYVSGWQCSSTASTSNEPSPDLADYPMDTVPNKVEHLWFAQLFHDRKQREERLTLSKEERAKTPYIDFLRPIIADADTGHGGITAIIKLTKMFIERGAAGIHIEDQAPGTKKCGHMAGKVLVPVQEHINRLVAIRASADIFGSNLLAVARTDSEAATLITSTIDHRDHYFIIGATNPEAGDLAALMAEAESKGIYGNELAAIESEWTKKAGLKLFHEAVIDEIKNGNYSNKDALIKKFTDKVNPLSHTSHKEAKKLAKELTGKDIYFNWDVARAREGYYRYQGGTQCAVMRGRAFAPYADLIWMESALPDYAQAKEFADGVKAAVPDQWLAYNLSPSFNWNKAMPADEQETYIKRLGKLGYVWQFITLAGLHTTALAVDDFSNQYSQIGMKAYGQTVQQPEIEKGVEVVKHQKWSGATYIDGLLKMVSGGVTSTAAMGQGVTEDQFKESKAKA

`O=C(O)CC[N+](=O)[O-]` [3-Nitropropionic acid]: in assay [1], the half-maximal inhibitory concentration (IC50) was 11.3 µM. This counts as double-digit micromolar.

`C=C[C@@H](O)[C@H](O)/C=C/C=C/C=C/C=C/[C@@H](O)[C@@H](C)O` [compound 1, Separacene A] came in with an IC50 in assay [2] of 172 µM.

For orientation: IC50 means the midpoint of a concentration-inhibition curve. Read a high IC50 as a need for much substance.
